Results: patent US9840496B2, “CD38 inhibitors and methods of treatment” (GlaxoSmithKline Intellectual Property (No.2) Limited, priority 2014, dated 2017)

Molecular target: T1, human CD38 (Homo sapiens, UniProt P28907)
T1 construct: The extracellular domain of human CD38 was expressed in pichia pastoris and purified to homogeneity; made in house; host or cells: Pichia pastoris
T1 sequence (P28907 43-300 limits assumed): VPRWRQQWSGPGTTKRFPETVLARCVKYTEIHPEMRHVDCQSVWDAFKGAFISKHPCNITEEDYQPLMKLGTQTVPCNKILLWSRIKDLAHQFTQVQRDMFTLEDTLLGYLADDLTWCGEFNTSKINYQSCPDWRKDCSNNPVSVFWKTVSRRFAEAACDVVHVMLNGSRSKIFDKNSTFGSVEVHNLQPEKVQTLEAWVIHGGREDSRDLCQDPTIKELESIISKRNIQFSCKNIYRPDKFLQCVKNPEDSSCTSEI
Test: human CD38 enzyme activity colorimetric assay
Type: biochemical
Conditions: extracellular domain of human CD38, 0.4 nM CD38, 100 uM NAD+
Method: The extracellular domain of human CD38 was expressed in pichia pastoris and purified to homogeneity. The enzyme activity assay was performed in a low-volume 384-well plate in a total volume of 20 μL. A range of concentrations of test compound in 200 nL DMSO was delivered into the assay plate wells. Columns 6 and 18 of the plate contained DMSO with no compound and served as the high signal and low signal controls (no CD38 added), respectively. All additions of assay reagents to the plate were done using a Multidrop Combi, and the plate was shaken 3-5 seconds after each addition. CD38 (0.8 nM) was incubated with test compound in 10 μL containing 100 mM HEPES, pH 7.4, 4 mM EDTA, and 1 mM CHAPS for 30 minutes prior to initiation of the reaction. The reaction was initiated by a 10 μL addition containing 5 mM sodium acetate, pH 4.5, 1 mM CHAPS, 200 μM NAD+ and 500 uM GW323424X. The solutions for each of the two additions were prepared fresh each day from concentrated stocks of the individual components. […] Catalytic formation of this novel chromophore was followed in an Envision microplate reader by reading absorbance at two time points, typically 30 minutes apart within the first 45 minutes of the reaction. These time points were established empirically to ensure the rates determined were in a linear range of product formation. Data analysis was performed in the following way using ActivityBase XE (Abase XE). The data from the 15 and 45 minute reads was processed by performing a subtraction function of 45 minute read value minus 15 minute read value for each plate well. The resulting values for non-control wells were converted to % inhibition using the formula 100*((U−C1)/(C2−C1)) where U is the value of the test well, C1 is the average of the values of the high signal (column 6) control wells, and C2 is the average of the values of the low signal (column 18) control wells. Percent inhibition (y) was plotted versus inhibitor concentration (x), and curve fitting was performed with the following four parameter equation: y=A+((B−A)/(1+(10^x/10^C)^D)), where A is the minimum response, B is the maximum response, C is the log10IC50, and D is the Hill slope.

Going from `CC(C)C(O)CO[C@H]1CC[C@H](NC(=O)c2cc(-n3ccnc3)cc3cc[nH]c23)CC1` (stereo partly drawn) [example 14, N-((1r,4r)-4-(2-Hydroxy-3-methylbutoxy)cyclohexyl)-5-(1H-imidazol-1-yl)-1H-indole-7-carboxamide] to `CC(O)(CN[C@H]1CC[C@H](NC(=O)c2cc(-n3ccnc3)cc3cc[nH]c23)CC1)C(F)(F)F` (stereo partly drawn) [example 10, 5-(1H-Imidazol-1-yl)-N-((1r,4r)-4-((3,3,3-trifluoro-2-hydroxy-2-methylpropyl)amino)cyclohexyl)-1H-indole-7-carboxamide], the IC50 rises from less than 500 nM to greater than 1000 nM.

First: CC(O)CO[C@H]1CC[C@H](NC(=O)c2cc(-n3ccnc3)cc3c(Cl)c[nH]c23)CC1 (stereo partly drawn) [example 8, 3-Chloro-N-((1r,4r)-4-(2-hydroxypropoxy)cyclohexyl)-5-(1H-imidazol-1-yl)-1H-indole-7-carboxamide]
Second: CNC(=O)[C@H]1CC[C@H](NC(=O)c2cc(-n3ccnc3)cc3cc[nH]c23)CC1 [example 4, 5-(1H-Imidazol-1-yl)-N-((1s,4s)-4-(methylcarbamoyl)cyclohexyl)-1H-indole-7-carboxamide]
The IC50 of the first is higher: 500 to 1000 nM for the first, less than 500 nM for the second. The second is the more potent here.

`O=C(N[C@H]1CC[C@H](NCC(F)F)CC1)c1cc(-n2ccnc2)cc2cc[nH]c12` [example 12, N-((1r,4r)-4-((2,2-Difluoroethyl)amino)cyclohexyl)-5-(1H-imidazol-1-yl)-1H-indole-7-carboxamide] and `CC(O)(COC1CCC(NC(=O)c2cc(-n3ccnc3)cc3cc[nH]c23)CC1)C1CC1` (stereo not drawn) [example 15, N-((1r,4r)-4-(2-Cyclopropyl-2-hydroxypropoxy)cyclohexyl)-5-(1H-imidazol-1-yl)-1H-indole-7-carboxamide] cannot be ordered by IC50: less than 500 nM for the first, less than 500 nM for the second.

`CC(O)(CO[C@H]1CC[C@H](NC(=O)c2cc(-n3ccnc3)cc3cc[nH]c23)CC1)C(F)(F)F` (stereo partly drawn) [example 9] and `CC(O)CO[C@H]1CC[C@H](NC(=O)c2cc(-n3ccnc3)cc3cc[nH]c23)CC1` (stereo partly drawn) [example 7, N-((1r,4r)-4-(2-Hydroxypropoxy)cyclohexyl)-5-(1H-imidazol-1-yl)-1H-indole-7-carboxamide] cannot be ordered by IC50: less than 500 nM for the first, less than 500 nM for the second.

Compared with `CCC(O)(CN[C@H]1CC[C@H](NC(=O)c2cc(-n3ccnc3)cc3cc[nH]c23)CC1)C(F)(F)F` (stereo partly drawn) [example 1, N-((1r,4r)-4-((2-Hydroxy-2-(trifluoromethyl)butyl)amino)cyclohexyl)-5-(1Himidazol-1-yl)-1H-indole-7-carboxamide], `CC(C)c1c[nH]c2c(C(=O)N[C@H]3CC[C@H](OCC(C)(C)O)CC3)cc(-n3ccnc3)cc12` [example 3, N-((1r,4r)-4-(2-Hydroxy-2-methylpropoxy)cyclohexyl)-5-(1H-imidazol-1-yl)-3-isopropyl-1H-indole-7-carboxamide] is higher in IC50: 500 to 1000 nM for the first, greater than 1000 nM for the second.

First: C[C@](CO)(N[C@H]1CC[C@H](NC(=O)c2cc(-n3ccnc3)cc3cc[nH]c23)CC1)C(F)(F)F [example 2, 5-(1H-Imidazol-1-yl)-N-((1R,4r)-4-(((R)-1,1,1-trifluoro-3-hydroxy-2-methylpropan-2-yl)amino)cyclohexyl)-1H-indole-7-carboxamide]
Second: O=C(N[C@H]1CC[C@H](NCC(F)F)CC1)c1cc(-n2ccnc2)cc2c(Cl)c[nH]c12 [example 13, 3-Chloro-N-((1r,4r)-4-((2,2-difluoroethyl)amino)cyclohexyl)-5-(1H-imidazol-1-yl)-1H-indole-7-carboxamide]
The IC50 of the first is lower: 500 to 1000 nM for the first, greater than 1000 nM for the second. The first is the more potent here.

First: CC(O)(C(=O)N[C@H]1CC[C@H](NC(=O)c2cc(-n3ccnc3)cc3cc[nH]c23)CC1)C(F)(F)F (stereo partly drawn) [example 11, 5-(1H-Imidazol-1-yl)-N-((1r,4r)-4-(3,3,3-trifluoro-2-hydroxy-2-methylpropanamido)cyclohexyl)-1H-indole-7-carboxamide]
Second: C[C@@H](CS(C)(=O)=O)N[C@H]1CC[C@H](NC(=O)c2cc(-n3ccnc3)cc3cc[nH]c23)CC1 [example 16, 5-(1H-Imidazol-1-yl)-N-((1R,4r)-4-(((R)-1-(methylsulfonyl)propan-2-yl)amino)cyclohexyl)-1H-indole-7-carboxamide]
The IC50 of the first is lower: less than 500 nM for the first, greater than 1000 nM for the second.

“N-((1r,4r)-4-(2-Hydroxy-2-methylpropoxy)cyclohexyl)-5-(1H-imidazol-1-yl)-1H-indole-7-carboxamide [example 6]” was tested, and the IC50 was less than 500 nM.
